From paper PMC9695041, “The Anti-Breast Cancer Activity of Dihydroartemisinin-5-methylisatin Hybrids Tethered via Different Carbon Spacers” (Molecules, 2022)

Columns and labels:
[1] = tested on: MCF-7 breast cancer cell line; test: MTT antiproliferative assay, MCF-7; format: cell-based; conditions: for IC50: MCF-7, MTT assay
Procedure: (§1) The antiproliferative activity and cytotoxicity of DHA-5-methylisatin hybrids 6a–c and 7a–m against MCF-7, MDA-MB-231, MCF-7/ADR, and MDA-MB-231/ADR (Purchased from Procell) breast cancer cell lines as well as MCF-10A were assessed by 3-(4,5-dimethylthiazol-2-yl)-2,5-diphenyltetrazolium bromide (MTT) assay.
(§2) MCF-7, MDA-MB-231, MCF-7/ADR, and MDA-MB-231/ADR breast cancer cell lines (2 × 10^3) were plated in each well of a 96-well plate and were allowed to adhere and spread for 24 h. The dihydroartemisinin-5-methylisatin hybrids 6a–e and 7a–m were added to a final concentration of 100 µM, and the cells were cultured for 24 h at 37 °C. 3-(4,5-dimethyl-2-thiazolyl)-2,5-diphenyltetrazolium bromide (MTT) solution (10 µL) was added to each well, and the cultures were incubated for an additional 4 h. A further 100 µL of MTT solution was added and incubation continued overnight. The absorbance at 540 nm was determined in each well with a 96-well plate reader. The growth of the treated cells was compared with that of untreated cells.

[2] = tested on: MDA-MB-231 breast cancer cell line; test: MTT antiproliferative assay, MDA-MB-231; format: cell-based; conditions: for IC50: MDA-MB-231, MTT assay
Procedure: as §1, §2

[3] = tested on: MCF-7/ADR breast cancer cell line; test: MTT antiproliferative assay, MCF-7/ADR; format: cell-based; conditions: MCF-7/ADR (drug-resistant)
Procedure: as §1, §2

[4] = tested on: MDA-MB-231/ADR breast cancer cell line; test: MTT antiproliferative assay, MDA-MB-231/ADR; format: cell-based; conditions: MDA-MB-231/ADR (drug-resistant)
Procedure: as §1, §2

[5] = tested on: normal MCF-10A breast cells
Procedure: as §1, §2

[6] = MTT cytotoxicity assay, MCF-10A; conditions: human, MCF-10A normal breast cells
Procedure: as §1, §2

| IC50 [1] [µM] | IC50 [2] [µM] | IC50 [3] [µM] | IC50 [4] [µM] | IC50 [5] [µM] | IC50 ([1]; Homo sapiens, MCF7) [µM] | IC50 ([3]; Homo sapiens, NCI/ADR-RES) [µM] | IC50 ([4]; Homo sapiens) [µM] | IC50 ([2]; Homo sapiens) [µM] | Compound | SI1: selectivity index IC50(MCF-10A)/IC50(MCF-7) [1] | SI2: selectivity index IC50(MCF-10A)/IC50(MDA-MB-231) [2] | IC50 at 24 h [6] [µM] |
| --- | --- | --- | --- | --- | --- | --- | --- | --- | --- | --- | --- | --- |
| > 100 | > 100 | > 100 | > 100 | > 100 |  |  |  |  | 3-((Benzyloxy)imino)-6-methyl-1-(3-(((3R,5aS,6R,8aS,9R,12R,12aR)-3,6,9-trimethyldecahydro-12H-3,12-epoxy[1,2]dioxepino[4,3-i]isochromen-10-yl)oxy)propyl)indolin-2-one [Hybrid 7l] |  |  |  |
| 85.2 | 73.9 | 77.5 | 80.3 | > 100 |  |  |  |  | 3-(Methoxyimino)-1-(4-(((3R,5aS,6R,8aS,9R,12R,12aR)-3,6,9-trimethyldecahydro-12H-3,12-epoxy[1,2]dioxepino[4,3-i]isochromen-10-yl)oxy)butyl)indolin-2-one [Hybrid 7h] |  |  |  |
|  |  |  |  |  | 30.3 | 28.7 | 36.4 | 42.6 | Cc1ccc2c(c1)C(=NO)C(=O)N2CCCOC1O[C@@H]2O[C@@]3(C)CC[C@H]4[C@H](C)CC[C@@H]([C@H]1C)[C@@]24OO3 (stereo partly drawn) [Hybrid 7b, 3-(Hydroxyimino)-5-methyl-1-(3-(((3R,5aS,6R,8aS,9R,12R,12aR)-3,6,9-trimethyldecahydro-12H-3,12-epoxy[1,2]dioxepino[4,3-i]isochromen-10-yl)oxy)propyl)indolin-2-one] | >3.30 | >2.34 | > 100 |
|  |  |  |  |  | 22.1 | 23.4 | 28.5 | 26.7 | Cc1ccc2c(c1)C(=NO)C(=O)N2CCCCOC1O[C@@H]2O[C@@]3(C)CC[C@H]4[C@H](C)CC[C@@H]([C@H]1C)[C@@]24OO3 (stereo partly drawn) [Hybrid 7c, 3-(Hydroxyimino)-5-methyl-1-(4-(((3R,5aS,6R,8aS,9R,12R,12aR)-3,6,9-trimethyldecahydro-12H-3,12-epoxy[1,2]dioxepino[4,3-i]isochromen-10-yl)oxy)butyl)indolin-2-one] | >4.52 | >3.83 | > 100 |
|  |  |  |  |  | 27.2 | 33.3 | 21.6 | 19.7 | Cc1ccc2c(c1)C(=NNC(N)=O)C(=O)N2CCOC1O[C@@H]2O[C@@]3(C)CC[C@H]4[C@H](C)CC[C@@H]([C@H]1C)[C@@]24OO3 (stereo partly drawn) [Hybrid 7d, 2-(5-Methyl-2-oxo-1-(2-(((3R,5aS,6R,8aS,9R,12R,12aR)-3,6,9-trimethyldecahydro-12H-3,12-epoxy[1,2]dioxepino[4,3-i]isochromen-10-yl)oxy)ethyl)indolin-3-ylidene)hydrazine-1-carboxamide] | >3.67 | >5.07 | > 100 |
|  |  |  |  |  | 39 | 42.1 | 34.5 | 31.2 | Cc1ccc2c(c1)C(=NNC(N)=O)C(=O)N2CCCCOC1O[C@@H]2O[C@@]3(C)CC[C@H]4[C@H](C)CC[C@@H]([C@H]1C)[C@@]24OO3 (stereo partly drawn) [Hybrid 7e, 2-(5-Methyl-2-oxo-1-(4-(((3R,5aS,6R,8aS,9R,12R,12aR)-3,6,9-trimethyldecahydro-12H-3,12-epoxy[1,2]dioxepino[4,3-i]isochromen-10-yl)oxy)butyl)indolin-3-ylidene)hydrazine-1-carboxamide] | >2.56 | >3.20 | > 100 |
|  |  |  |  |  | 46.7 | 36.4 | 51.1 | 48.2 | Cc1ccc2c(c1)C(=NNC(N)=S)C(=O)N2CCCOC1O[C@@H]2O[C@@]3(C)CC[C@H]4[C@H](C)CC[C@@H]([C@H]1C)[C@@]24OO3 (stereo partly drawn) [Hybrid 7f, 2-(5-Methyl-2-oxo-1-(3-(((3R,5aS,6R,8aS,9R,12R,12aR)-3,6,9-trimethyldecahydro-12H-3,12-epoxy[1,2]dioxepino[4,3-i]isochromen-10-yl)oxy)propyl)indolin-3-ylidene)hydrazine-1-carbothioamide] | >2.14 | >2.07 | > 100 |
|  |  |  |  |  | 28.9 | 30.3 | 40.6 | 35.1 | Cc1ccc2c(c1)C(=NNC(N)=S)C(=O)N2CCCCOC1O[C@@H]2O[C@@]3(C)CC[C@H]4[C@H](C)CC[C@@H]([C@H]1C)[C@@]24OO3 (stereo partly drawn) [Hybrid 7g, 2-(5-Methyl-2-oxo-1-(4-(((3R,5aS,6R,8aS,9R,12R,12aR)-3,6,9-trimethyldecahydro-12H-3,12-epoxy[1,2]dioxepino[4,3-i]isochromen-10-yl)oxy)butyl)indolin-3-ylidene)hydrazine-1-carbothioamide] | >3.46 | >2.84 | > 100 |
|  |  |  |  |  | 69.3 | 61.8 | 72.7 | 70.4 | CCON=C1C(=O)N(CCOC2O[C@@H]3O[C@@]4(C)CC[C@H]5[C@H](C)CC[C@@H]([C@H]2C)[C@@]35OO4)c2ccc(C)cc21 (stereo partly drawn) [Hybrid 7i, 3-(Ethoxyimino)-5-methyl-1-(2-(((3R,5aS,6R,8aS,9R,12R,12aR)-3,6,9-trimethyldecahydro-12H-3,12-epoxy[1,2]dioxepino[4,3-i]isochromen-10-yl)oxy)ethyl)indolin-2-one] | >1.44 | >1.42 | > 100 |
|  |  |  |  |  | > 100 | > 100 | > 100 | > 100 | Cc1ccc2c(c1)C(=NOCc1ccccc1)C(=O)N2CCOC1O[C@@H]2O[C@@]3(C)CC[C@H]4[C@H](C)CC[C@@H]([C@H]1C)[C@@]24OO3 (stereo partly drawn) [Hybrid 7k, 3-((Benzyloxy)imino)-5-methyl-1-(2-(((3R,5aS,6R,8aS,9R,12R,12aR)-3,6,9-trimethyldecahydro-12H-3,12-epoxy[1,2]dioxepino[4,3-i]isochromen-10-yl)oxy)ethyl)indolin-2-one] |  |  | > 100 |
|  |  |  |  |  | > 100 | > 100 | > 100 | > 100 | Cc1ccc2c(c1)C(=NOCc1ccccc1)C(=O)N2CCCCOC1O[C@@H]2O[C@@]3(C)CC[C@H]4[C@H](C)CC[C@@H]([C@H]1C)[C@@]24OO3 (stereo partly drawn) [Hybrid 7m, 3-((Benzyloxy)imino)-5-methyl-1-(4-(((3R,5aS,6R,8aS,9R,12R,12aR)-3,6,9-trimethyldecahydro-12H-3,12-epoxy[1,2]dioxepino[4,3-i]isochromen-10-yl)oxy)butyl)indolin-2-one] |  |  | > 100 |

The next lines start with the compound.

| Compound | IC50 [1] [µM] | IC50 [2] [µM] | IC50 [3] [µM] | IC50 [4] [µM] | IC50 [5] [µM] | IC50 ([1]; Homo sapiens, MCF7) [µM] | IC50 ([3]; Homo sapiens, NCI/ADR-RES) [µM] | IC50 ([4]; Homo sapiens) [µM] | IC50 ([2]; Homo sapiens) [µM] | SI1: selectivity index IC50(MCF-10A)/IC50(MCF-7) [1] | SI2: selectivity index IC50(MCF-10A)/IC50(MDA-MB-231) [2] | IC50 at 24 h [6] [µM] |
| --- | --- | --- | --- | --- | --- | --- | --- | --- | --- | --- | --- | --- |
| COc1cccc2c1C(=O)c1c(O)c3c(c(O)c1C2=O)C[C@@](O)(C(=O)CO)C[C@@H]3O[C@H]1C[C@H](N)[C@H](O)[C@H](C)O1 [ADR, Adriamycin, reference compound] |  |  |  |  |  | 18.9 | > 100 | > 100 |  | 3.64 | 14.76 | 68.8 |
| C[C@@H]1CC[C@H]2[C@@H](C)C(=O)O[C@@H]3O[C@@]4(C)CC[C@@H]1[C@]32OO4 [ART, Artemisinin] |  |  |  |  |  |  | > 100 | > 100 |  | >1.14 | >1.38 | > 100 |
| C[C@H]1[C@@H](O)O[C@@H]2O[C@@]3(C)CC[C@H]4[C@H](C)CC[C@@H]1[C@@]24OO3 [DHA, Dihydroartemisinin] |  |  |  |  |  |  | 79.1 |  |  | >1.36 | >1.43 | > 100 |
| Cc1ccc2c(c1)C(=O)C(=O)N2CCOC1O[C@@H]2O[C@@]3(C)CC[C@H]4[C@H](C)CC[C@@H]([C@H]1C)[C@@]24OO3 (stereo partly drawn) [Hybrid 6a, 5-Methyl-1-(2-(((3R,5aS,6R,8aS,9R,12R,12aR)-3,6,9-trimethyldecahydro-12H-3,12-epoxy[1,2]dioxepino[4,3-i]isochromen-10-yl)oxy)ethyl)indoline-2,3-dione] |  |  |  |  |  | 31.7 | 25.3 | 26.9 | 29.1 | >3.15 | >3.43 | > 100 |
| Cc1ccc2c(c1)C(=O)C(=O)N2CCCOC1O[C@@H]2O[C@@]3(C)CC[C@H]4[C@H](C)CC[C@@H]([C@H]1C)[C@@]24OO3 (stereo partly drawn) [Hybrid 6b, 5-Methyl-1-(3-(((3R,5aS,6R,8aS,9R,12R,12aR)-3,6,9-trimethyldecahydro-12H-3,12-epoxy[1,2]dioxepino[4,3-i]isochromen-10-yl)oxy)propyl)indoline-2,3-dione] |  |  |  |  |  | > 100 | 87.4 | > 100 | > 100 |  |  | > 100 |
| Cc1ccc2c(c1)C(=O)C(=O)N2CCCCOC1O[C@@H]2O[C@@]3(C)CC[C@H]4[C@H](C)CC[C@@H]([C@H]1C)[C@@]24OO3 (stereo partly drawn) [Hybrid 6c, 5-Methyl-1-(4-(((3R,5aS,6R,8aS,9R,12R,12aR)-3,6,9-trimethyldecahydro-12H-3,12-epoxy[1,2]dioxepino[4,3-i]isochromen-10-yl)oxy)butyl)indoline-2,3-dione] |  |  |  |  |  | 59.7 | 49.9 | 44.5 | 42.3 | >1.67 | >2.36 | > 100 |
